Source: patent US9174994B2, “Enhanced treatment regimens using mTor inhibitors” (INTELLIKINE LLC, priority 2011, dated 2015)

Experiment: Phase I clinical trial: treatment-emergent adverse events (patients, n (%)), dose limiting toxicity, MTD
Assay type: in vivo
Procedure: Safety, maximum tolerated dose (MTD), pharmacokinetics (PK) and preliminary antitumor activity were evaluated.
Pharmacodynamic (PD) endpoints were evaluated in surrogate (peripheral blood cells [PBCs], skin) and tumor tissues for the phosphorylation of TORC1-dependent markers (4EBP1/S6), and TORC2-dependent markers (AKT/PRAS40).

## CC(C)n1nc(-c2ccc3oc(N)nc3c2)c2c(N)ncnc21 [compound A]
15 mg/week (N = 3)
  Asthenia: 0 (0%)
  Blood creatinine increased: 1 (33%)
  Blood triglycerides increased: 1 (33%)
  DIARRHEA: 0 (0%)
  Decreased appetite: 0 (0%)
  Diarrhoea: 0 (0%)
  Dysgeusia: 0 (0%)
  Dyspepsia: 0 (0%)
  HYPERGLYCEMIA: 0 (0%)
  Hyperglycaemia: 2 (67%)
  Lymphopenia: 0 (0%)
  Malaise: 0 (0%)
  Mucosal inflammation: 0 (0%)
  Muscle spasms: 0 (0%)
  Nausea: 2 (67%)
  Oral discomfort: 0 (0%)
  Patients Reporting at Least One Related TEAE: 3
  Pruritus: 0 (0%)
  RASH: 0 (0%)
  Rash: 0 (0%)
  Vomiting: 0 (0%)
  WEAKNESS: 0 (0%)
16 mg/3 W, QDx3d QW (N = 3)
  Alanine aminotransferase increased: 0 (0%)
  Asthenia: 1 (33%)
  Catheter site inflammation: 0 (0%)
  Catheter site pain: 0 (0%)
  Decreased appetite: 0 (0%)
  Diarrhoea: 1 (33%)
  Dry skin: 0 (0%)
  Dysgeusia: 0 (0%)
  Dyspnoea: 0 (0%)
  Fatigue: 1 (33%)
  Headache: 1 (33%)
  Hyperbilirubinaemia: 0 (0%)
  Hypercholesterolaemia: 0 (0%)
  Hyperglycaemia: 2 (67%)
  Hypertransaminasaemia: 0 (0%)
  Hypertriglyceridaemia: 0 (0%)
  Hypomagnesaemia: 0 (0%)
  Hypotension: 0 (0%)
  Low fever: 1 (33%)
  Lymphopenia: 0 (0%)
  Mucosal inflammation: 2 (67%)
  Nausea: 0 (0%)
  Palmar-plantar erythrodysaesthesia syndrome: 0 (0%)
  Patients Reporting at Least One Related TEAE: 2 (67%)
  Platelet count decreased: 0 (0%)
  Pruritus: 0 (0%)
  Pyrexia: 1 (33%)
  Rash: 0 (0%)
  Rash macular: 0 (0%)
  Urinary tract infection: 0 (0%)
  Vomiting: 0 (0%)
16 mg/3 W, QDx3d QW (N = 3), 2nd Asthenia line
  Asthenia: 1 (33%)
20 mg Q3D
  Dose limiting toxicity: Muco-
20 mg/week (N = 3)
  ASTHENIA: 0 (0%)
  ATHENIA: 0 (0%)
  Alanine aminotransferase increased: 0 (0%)
  Aspartate aminotransferase increased: 0 (0%)
  Asthenia: 2 (67%)
  Blood creatinine increased: 0 (0%)
  Blood triglycerides increased: 0 (0%)
  DIARRHEA: 0 (0%)
  Decreased appetite: 1 (33%)
  Diarrhoea: 2 (67%)
  Dysgeusia: 0 (0%)
  Dyspepsia: 1 (33%)
  HYPERGLYCEMIA: 0 (0%)
  Hyperglycaemia: 1 (33%)
  Lymphopenia: 0 (0%)
  Malaise: 0 (0%)
  Mucosal inflammation: 2 (67%)
  Muscle spasms: 1 (33%)
  Nausea: 2 (67%)
  Oral discomfort: 0 (0%)
  Patients Reporting at Least One Related TEAE: 2 (67%)
  Pruritus: 1 (33%)
  RASH: 0 (0%)
  Rash: 1 (33%)
  Vomiting: 1 (33%)
  WEAKNESS: 0 (0%)
30 mg/week (N = 3)
  ASTHENIA: 1 (33%)
  ATHENIA: 1 (33%)
  Alanine aminotransferase increased: 0 (0%)
  Aspartate aminotransferase increased: 0 (0%)
  Asthenia: 0 (0%)
  Blood creatinine increased: 0 (0%)
  Blood triglycerides increased: 0 (0%)
  DIARRHEA: 1 (33%)
  Decreased appetite: 0 (0%)
  Diarrhoea: 0 (0%)
  Dysgeusia: 0 (0%)
  Dyspepsia: 0 (0%)
  HYPERGLYCEMIA: 2 (67%)
  Hyperglycaemia: 0 (0%)
  Lymphopenia: 0 (0%)
  Malaise: 1 (33%)
  Mucosal inflammation: 1 (33%)
  Muscle spasms: 0 (0%)
  Nausea: 3
  Oral discomfort: 0 (0%)
  Patients Reporting at Least One Related TEAE: 3
  Pruritus: 0 (0%)
  RASH: 1 (33%)
  Rash: 0 (0%)
  Vomiting: 1 (33%)
  WEAKNESS: 1 (33%)
40 mg QW
  Dose limiting toxicity: As-
